Test results as given in ChEMBL document CHEMBL1133025, “The utilization of a unified pharmacophore query in the discovery of new antagonists of the adenosine receptor family” (Bioorg Med Chem Lett, 2000).

Columns and labels:
[1] = target: T1, Adenosine receptor A3 (Homo sapiens) (UniProt P0DMS8); experiment: In vitro inhibitory activity against human Adenosine A3 receptor at 10e-5 M
T1 sequence (whole entry): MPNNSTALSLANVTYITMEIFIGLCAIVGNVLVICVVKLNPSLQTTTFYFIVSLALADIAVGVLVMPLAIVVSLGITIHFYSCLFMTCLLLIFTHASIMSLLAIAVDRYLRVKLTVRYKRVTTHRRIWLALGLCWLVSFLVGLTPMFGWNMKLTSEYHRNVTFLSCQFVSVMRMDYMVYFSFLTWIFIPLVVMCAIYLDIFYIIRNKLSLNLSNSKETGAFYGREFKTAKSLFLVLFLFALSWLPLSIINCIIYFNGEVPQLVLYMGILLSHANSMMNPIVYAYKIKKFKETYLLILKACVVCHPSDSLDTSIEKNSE

Adenosine receptor A3 [2] = target: T2, Adenosine receptor A3 (Homo sapiens, UniProt P0DMS8); experiment: Inhibition of [35S]GTP-gamma-S, binding stimulated by 20 uM 5''-N-ethyluronamidoadenosine (NECA) in membranes of HEK293 cells expressing human Adenosine A3 receptor; format: functional, cell membranes
T2 sequence (P0DMS8 whole entry): T1 sequence (whole entry)

Adenosine receptor A3 [3] = target: T2, Adenosine receptor A3; experiment: In vitro binding affinity against human Adenosine A3 receptor
Adenosine receptor A3 [4] = target: T2, Adenosine receptor A3; experiment: Inhibition of [35S]GTP-gamma-S, binding stimulated by 5 uM 5''-N-ethyluronamidoadenosine (NECA) in membranes of HEK293 cells expressing human Adenosine A3 receptor; format: functional, cell membranes

| inhibition [1] [%] | Ki (Adenosine receptor A3 [3]) [nM] | Compound | also measured |
| --- | --- | --- | --- |
| 60 | – | CCSc1nnc2c(n1)OC(c1ccc(-c3ccc(Cl)cc3)o1)Nc1ccccc1-2 (stereo unspecified) | – |
| 65 | – | Cc1ccc(N(CC(=O)N/N=C/c2ccccc2O)S(=O)(=O)c2ccccc2)cc1 | – |
| – | 3100 | CCOC(=O)CNC(c1ccccc1)c1cc(Br)ccc1NC(=O)c1ccccc1 (stereo unspecified) | IC50 (Adenosine receptor A3 [4]): 407 nM |
| – | 600 | CCOC(=O)c1c(NC(=O)Cc2ccccc2)sc2c1CCN(C(=O)OCC)C2 | IC50 (Adenosine receptor A3 [2]): 186 nM |

The next lines start with the compound.

| Compound | inhibition [1] [%] | Ki (Adenosine receptor A3 [3]) [nM] | also measured |
| --- | --- | --- | --- |
| O=C(NCCc1c[nH]c2ccc(OCc3ccccc3)cc12)c1ccco1 | 70 | – | – |
| COc1ccc(N(CC(=O)Nc2cccc(Cl)c2C)S(=O)(=O)c2ccccc2)cc1 | 65 | – | – |
| CC(NC(=O)OCc1ccccc1)C(=O)Oc1cc(O)c2c(=O)cc(-c3ccccc3)oc2c1 (stereo unspecified) | 60 | – | – |
| COc1ccc(-c2csc(NC3OC(=O)c4c3ccc(OC)c4OC)n2)cc1 (stereo unspecified) | – | 1300 | IC50 (Adenosine receptor A3 [2]): 255 nM |
